Patent publication US10329289B2, “6,7-dihydro-5H-pyrrolo[3,4-B]pyridin-5-one allosteric modulators of the M4 muscarinic acetylcholine receptor” (Merck Sharp & Dohme Corp., priority 2015, dated 2019)

Target: T1, human M4 muscarinic acetylcholine receptor (Homo sapiens, UniProt P08173)
T1 construct: expressed in transfected cells; host or cells: CHO-K1
T1 sequence (P08173 1-479): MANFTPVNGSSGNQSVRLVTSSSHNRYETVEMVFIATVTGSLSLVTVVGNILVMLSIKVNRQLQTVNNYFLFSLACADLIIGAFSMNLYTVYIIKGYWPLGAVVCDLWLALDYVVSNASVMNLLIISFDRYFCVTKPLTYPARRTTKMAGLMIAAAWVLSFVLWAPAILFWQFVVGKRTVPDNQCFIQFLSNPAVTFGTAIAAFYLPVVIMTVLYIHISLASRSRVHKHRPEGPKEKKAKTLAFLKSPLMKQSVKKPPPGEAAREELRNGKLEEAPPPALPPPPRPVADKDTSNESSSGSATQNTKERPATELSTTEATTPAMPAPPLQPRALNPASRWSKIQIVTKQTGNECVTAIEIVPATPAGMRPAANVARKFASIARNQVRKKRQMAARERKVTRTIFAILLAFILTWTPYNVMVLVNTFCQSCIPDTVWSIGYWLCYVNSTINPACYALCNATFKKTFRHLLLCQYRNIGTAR
Experiment: human FLIPR-based M4 PAM assay (Ca2+ mobilization, CHO-K1 cells with human M4 receptor and Gαqi5)
Format: cell-based
Conditions: acetylcholine at 20% of maximum response, read-out: M4 PAM IP
Summary of the method: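 Calcium-mobilization (FLIPR) readout in dye-loaded CHO-K1 cells co-expressing human M4 receptor and Gαqi5. Potentiation measured against acetylcholine at a concentration giving 20% of maximal response, with an optional 70% addition; the reported value is the curve inflection point from a 4-parameter logistic fit.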

| SMILES | EC50 [nM] |
| --- | --- |
| COc1ccc(OC2CCN(c3nc4c(cc3C)C(=O)N(C)C4(CO)CO)CC2)cn1 [Example 274, 7,7-Bis(hydroxymethyl)-2-(4-((6-methoxpyridin-3-yl)oxy)piperidin-1-yl)-3,6-dimethyl-6,7-dihydro-5H-pyrrolo[3,4-b]pyridin-5-one] | 1160 |
| Cc1cc2c(nc1N1CCC(Oc3ccccc3)CC1)[C@H](CO)N(C)C2=O [Example 275, (R)-7-(hydroxymethyl)-3,6-dimethyl-2-(4-phenoxypiperidin-1-yl)-6,7-dihydro-5H-pyrrolo[3,4-b]pyridin-5-one] | 3970 |
| Cc1cc2c(nc1N1CC[C@@H](Oc3ccc4c(c3)COC4)[C@@H](F)C1)[C@H](CO)N(C)C2=O [Example 277, (R)-2-((3S,4R)-4-((1,3-dihydro-2-benzofuran-5-yl)oxy)-3-fluoropiperidin-1-yl)-7-(hydroxymethyl)-3,6-dimethyl-6,7-dihydro-5H-pyrrolo[3,4-b]pyridin-5-one] | 3400 |
| Cc1cc2c(nc1N1CCC(Oc3cnc4c(c3)COC4)CC1)[C@H](CO)N(C)C2=O [Example 277A, (R)-2-(4-((5,7-dihydrofuro[3,4-b]pyridin-3-yl)oxy)piperidin-1-yl)-7-(hydroxymethyl)-3,6-dimethyl-6,7-dihydro-5H-pyrrolo[3,4-b]pyridin-5-one] | 30000 |
| Cc1cc2c(nc1N1CC[C@@H](Oc3ccc4c(c3)COC4)[C@H](F)C1)[C@H](CO)N(C)C2=O [Example 279A, (R)-2-((3R,4R)-4-((1,3-dihydro-2-benzofuran-5-yl)oxy)-3-fluoropiperidin-1-yl)-7-(hydroxymethyl)-3,6-dimethyl-6,7-dihydro-5H-pyrrolo[3,4-b]pyridin-5-one] | 909 |
| Cc1cc2c(nc1N1CCC(Oc3ccc(F)cc3)CC1)[C@H](CO)N(C)C2=O [Example 280, (R)-2-(4-(4-fluorophenoxy)piperidin-1-yl)-7-(hydroxymethyl)-3,6-dimethyl-6,7-dihydro-5H-pyrrolo[3,4-b]pyridin-5-one] | 438 |
| COc1ccc(O[C@@H]2CCN(c3nc4c(cc3C)C(=O)N(C)[C@H]4CO)C[C@H]2F)cn1 [Example 281A, (R)-2-((3R,4R)-3-fluoro-4-((6-methoxypyridin-3-yl)oxy)piperidin-1-yl)-7-(hydroxymethyl)-3,6-dimethyl-6,7-dihydro-5H-pyrrolo[3,4-b]pyridin-5-one] | 8060 |
| Cc1cc2c(nc1N1CCC(Oc3ccc4c(c3)COC4)CC1)[C@H](CO)N(C)C2=O [Example 282, (R)-2-(4-((1,3-dihydro-2-benzofuran-5-yl)oxy)piperidin-1-yl)-7-(hydroxymethyl)-3,6-dimethyl-6,7-dihydro-5H-pyrrolo[3,4-b]pyridin-5-one] | 623 |
| Cc1cc2c(nc1N1CC[C@@H](Oc3ccc4c(cnn4C)c3)[C@@H](F)C1)[C@H](CO)N(C)C2=O [Example 284, (R)-2-((3S,4R)-3-fluoro-4-((1-methyl-1H-indazol-5-yl)oxy)piperidin-1-yl)-7-(hydroxymethyl)-3,6-dimethyl-6,7-dihydro-5H-pyrrolo[3,4-b]pyridin-5-one] | 4330 |
| CCOc1ccc(OC2CCN(c3nc4c(cc3C)C(=O)N(C)[C@H]4CO)CC2)cn1 [Example 285, (R)-2-(4-((6-ethoxypyridin-3-yl)oxy)piperidin-1-yl)-7-(hydroxymethyl)-3,6-dimethyl-6,7-dihydro-5H-pyrrolo[3,4-b]pyridin-5-one] | 8620 |
| COc1ccc(OC2CCN(c3nc4c(cc3C)C(=O)NC4(C)C)CC2)cn1 [Example 288, 2-(4-((6-Methoxypyridin-3-yl)ox)piperidin-1-yl)-3,7,7-trimethyl-6,7-dihydro-5H-pyrrolo[3,4-b]pyridin-5-one] | 1790 |
| Cc1cc2c(nc1N1CCC(Oc3ccc4c(c3)CN(C)C4)CC1)CNC2=O [Example 290, 3-Methyl-2-(4-((2-methylisoindolin-5-yl)oxy)piperidin-1-yl)-6,7-dihydro-5H-pyrrolo[3,4-b]pyridin-5-one] | 353 |
| Cc1cc2c(nc1N1CCC(Oc3ccc4c(c3)CCCN4C)CC1)CNC2=O [Example 291, 3-methyl-2-(4-((1-methyl-1,2,3,4-tetrahydroquinolin-6-yl)oxy)piperidin-1-yl)-6,7-dihydro-5H-pyrrolo[3,4-b]pyridin-5-one] | 204 |
| Cc1cc2c(nc1N1CCC(Oc3ccc4c(c3)CN(C)CC4)CC1)CNC2=O [Example 292, 3-methyl-2-(4-((2-methyl-1,2,3,4-tetrahydroisoquinolin-7-yl)oxy)piperidin-1-yl)-6,7-dihydro-5H-pyrrolo[3,4-b]pyridin-5-one] | 174 |
| CC(=O)N1Cc2ccc(OC3CCN(c4nc5c(cc4C)C(=O)NC5)CC3)cc2C1 [Example 294, 2-(4-((2-Acetylisoindolin-5-yl)oxy)piperidin-1-yl)-3-methyl-6,7-dihydro-5H-pyrrolo[3,4-b]pyridin-5-one] | 202 |

These reach a lower EC50. Values come first.

| EC50 [nM] | SMILES |
| --- | --- |
| 145 | Cc1cc2c(nc1N1CCC(Oc3ccccc3)CC1)[C@@H](CO)N(C)C2=O [Example 276, (S)-7-(hydroxymethyl)-3,6-dimethyl-2-(4-phenoxypiperidin-1-yl)-6,7-dihydro-5H-pyrrolo[3,4-b]pyridin-5-one] |
| 19 | Cc1cc2c(nc1N1CC[C@@H](Oc3ccc4c(c3)COC4)[C@@H](F)C1)[C@@H](CO)N(C)C2=O [Example 278, (S)-2-((3S,4R)-4-((1,3-dihydro-2-benzofuran-5-yl)oxy)-3-fluoropiperidin-1-yl)-7-(hydroxymethyl)-3,6-dimethyl-6,7-dihydro-5H-pyrrolo[3,4-b]pyridin-5-one] |
| 76 | Cc1cc2c(nc1N1CCC(Oc3cnc4c(c3)COC4)CC1)[C@@H](CO)N(C)C2=O [Example 278A, (S)-2-(4-((5,7-dihydrofuro[3,4-b]pyridin-3-yl)oxy)piperidin-1-yl)-7-(hydroxymethyl)-3,6-dimethyl-6,7-dihydro-5H-pyrrolo[3,4-b]pyridin-5-one] |
| 30 | Cc1cc2c(nc1N1CCC(Oc3ccc(F)cc3)CC1)[C@@H](CO)N(C)C2=O [Example 279, (S)-2-(4-(4-fluorophenoxy)piperidin-1-yl)-7-(hydroxymethyl)-3,6-dimethyl-6,7-dihydro-5H-pyrrolo[3,4-b]pyridin-5-one] |
| 14 | Cc1cc2c(nc1N1CC[C@@H](Oc3ccc4c(c3)COC4)[C@H](F)C1)[C@@H](CO)N(C)C2=O [Example 280A, (S)-2-((3R,4R)-4-((1,3-dihydro-2-benzofuran-5-yl)oxy)-3-fluoropiperidin-1-yl)-7-(hydroxymethyl)-3,6-dimethyl-6,7-dihydro-5H-pyrrolo[3,4-b]pyridin-5-one] |
| 23 | Cc1cc2c(nc1N1CCC(Oc3ccc4c(c3)COC4)CC1)[C@@H](CO)N(C)C2=O [Example 281, (S)-2-(4-((1,3-dihydro-2-benzofuran-5-yl)oxy)piperidin-1-yl)-7-(hydroxymethyl)-3,6-dimethyl-6,7-dihydro-5H-pyrrolo[3,4-b]pyridin-5-one] |
| 38 | COc1ccc(O[C@@H]2CCN(c3nc4c(cc3C)C(=O)N(C)[C@@H]4CO)C[C@H]2F)cn1 [Example 282A, (S)-2-((3R,4R)-3-fluoro-4-((6-methoxypyridin-3-yl)oxy)piperidin-1-yl)-7-(hydroxymethyl)-3,6-dimethyl-6,7-dihydro-5H-pyrrolo[3,4-b]pyridin-5-one] |
| 44 | Cc1cc2c(nc1N1CC[C@@H](Oc3ccc4c(cnn4C)c3)[C@@H](F)C1)[C@@H](CO)N(C)C2=O [Example 283, (S)-2-((3S,4R)-3-fluoro-4-((1-methyl-1H-indazol-5-yl)oxy)piperidin-1-yl)-7-(hydroxymethyl)-3,6-dimethyl-6,7-dihydro-5H-pyrrolo[3,4-b]pyridin-5-one] |
| 38 | CCOc1ccc(OC2CCN(c3nc4c(cc3C)C(=O)N(C)[C@@H]4CO)CC2)cn1 [Example 286, (S)-2-(4-((6-ethoxypyridin-3-yl)oxy)piperidin-1-yl)-7-(hydroxymethyl)-3,6-dimethyl-6,7-dihydro-5H-pyrrolo[3,4-b]pyridin-5-one] |
| 156 | C=C1NC(=O)c2cc(C)c(N3CCC(Oc4ccc(OC)nc4)CC3)nc21 [Example 289, 2-(4-((6-Methoxypyridin-3-yl)oxy)piperidin-1-yl)-3-methyl-7-methylene-6,7-dihydro-5H-pyrrolo[3,4-b]pyridin-5-one] |
| 104 | Cc1cc2c(nc1N1CCC(Oc3ccc4c(c3)OCCN4C)CC1)CNC2=O [Example 293, 3-methyl-2-(4-((4-methyl-3,4-dihydro-2H-benzo[b][1,4]oxazin-7-yl)oxy)piperidin-1-yl)-6,7-dihydro-5H-pyrrolo[3,4-b]pyridin-5-one] |
| 137 | CC(=O)N1CCc2ccc(OC3CCN(c4nc5c(cc4C)C(=O)NC5)CC3)cc2C1 [Example 295, 2-(4-((2-acetyl-1,2,3,4-tetrahydro-isoquinolin-7-yl)oxy)piperidin-1-yl)-3-methyl-6,7-dihydro-5H-pyrrolo[3,4-b] pyridin-5-one] |
| 83 | COc1ccc(OC2CCN(c3nc4c(cc3C)C(=O)N(Cc3ccncc3)C4=O)CC2)cn1 [Example 296, 2-(4-((6-Methoxypyridin-3-yl)oxy)piperidin-1-yl)-3-methyl-6-(pyridin-4-ylmethyl)-5H-pyrrolo[3,4-b]pyridine-5,7(6H)-dione] |
